The values that follow come from article PMC11435220, “Anticancer Activity of Imidazolyl Gold(I/III) Compounds in Non-Small Cell Lung Cancer Cell Lines” (Pharmaceuticals, 2024).

The structures appear in SMILES notation. Like-named read-outs stand apart in the source and are kept apart here.

One assay deals with H1792. The assay can be described thus: MTT viability assay, H1792. It is filed as cell-based, human. Particulars: mean ± span, 48 h treatment, cell line with KRAS mutation. The protocol:
(§1) NSCLC cell lines were obtained from the Hamon Center for Therapeutic Oncology Research (UT Southwestern Medical Center). IMR-90 human lung fibroblasts were from ATCC (CC-186). All cell lines were maintained and treated in RPMI medium (Cytiva (Shanghai, China), #SH30027), supplemented with 10% heat-inactivated FBS (Millipore Sigma (Darmstadt, Germany), F0394).
(§2) 5000–10,000 cells/0.1 mL/well were seeded in 96-well plates to achieve 70% confluence after 24 h. All drug stock solutions were prepared fresh in DMSO at a concentration of 10 mM. The day after cell plating, we added 0.1 mL of medium containing the appropriate drug dilutions. After 48 h of treatment, 10 μL of MTT solution (5 mg/mL) was added to each well. After 4 h incubation, the medium was aspirated, and the formazan salts dissolved in 200 μL DMSO/well for 10 min at 37 °C. The absorbance was read at 570 nm (OD 570 nm). Data are represented as mean ± SD of two independent experiments.
(§3) Statistical and data analysis was performed using GraphPad Prism (v10). IC50 values were calculated using a three-parameter non-linear regression model with log(inhibitor) vs. response. For the TxrR activity statistics, the groups were compared using a two-way ANOVA followed by Dunnett’s multiple comparisons with alpha = 0.05. The correlation between IC50 values and TxrR activity was achieved using Pearson correlation with alpha = 0.05.
Background: Tetrazolium assays rely on reduction of a dye to a coloured formazan, in cell work by metabolically active cells.

Assay [1] deals with T1, recombinant human DHFR (hDHFR) (Homo sapiens, UniProt P00374).
T1 construct: made in house; host or cells: E. coli BL21, plasmid pET17b (gift of C. Robert Matthews)
T1 sequence (P00374 1-187): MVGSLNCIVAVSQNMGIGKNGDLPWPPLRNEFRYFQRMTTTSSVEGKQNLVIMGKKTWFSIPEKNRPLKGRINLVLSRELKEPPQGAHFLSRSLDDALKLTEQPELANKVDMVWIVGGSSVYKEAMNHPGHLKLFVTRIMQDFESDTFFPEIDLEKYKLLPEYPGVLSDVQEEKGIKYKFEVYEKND
The assay can be described thus: Cell-free human dihydrofolate reductase enzymatic activity. The note with it: for effect on hDHFR enzymatic activity: H2F sub-saturating (~20 µM) and close to Km (~3 µM). It is filed as biochemical. The protocol: Recombinant human DHFR was overexpressed and purified from pET17b (+) encoding the hDHFR gene/BL21 (Novagene® (Hong Kong, China)) E. coli cells as described in the literature. The protein purity was verified as a single band in Coomassie-stained SDS-PAGE. The concentration of the hDHFR was measured spectrophotometrically at 280 nm using the extinction coefficient of 28,400 M^−1 cm^−1 and resulted to be equal to 14 µM. The activity of the DHFR was followed by recording the absorbance over time at 340 nm in a UV-VIS spectrophotometer Shimadzu UV-2450. The procedure consisted of mixing the 50 mM Hepes buffer (pH 7.3) with saturating concentration NADPH ([…]) and […] hDHFR, incubating at 37 °C for 5 min, and starting the reaction by adding H2F at various concentrations. When testing the inhibition capacity of gold complexes, the reaction mixture was prepared by adding increasing concentrations of the tested compounds before the incubation at 37 °C. Since the gold complexes were solubilized in 100% methanol (HPLC-grade, Carlo Erba), the enzymatic activity of hDHFR was also assessed in the presence of the equal volumes of MeOH used in the assays with the gold complexes and eventually subtracted. Data are represented as mean ± SEM of 2 independent experiments and analyzed according to best-fit models using GraphPad Prism (v10).
For the data analysis of hDHFR enzymatic activity, the sigmoidal non-linear fitting model in the GraphPad Prism (v10) was used, in which the concentration of inhibitor was expressed as concentrations: Y = Bottom + (Top − Bottom)/(1 + (IC50/X)^HillSlope). Figures were partially prepared with BioRender (https://app.biorender.com) accessed on 25 July 2024).

Another assay has as its system H1993. Put plainly: MTT viability assay, H1993. It is filed as cell-based, human. The note with it: mean ± span, 48 h treatment, cell line without KRAS mutation. The method, then: as §1, §2, §3
Assay [2] relates to human NSCLC cell lines with KRAS mutations. The assay can be described thus: MTT assay, average across NSCLC cell lines with KRAS mutations. It is filed as cell-based. Particulars: 48 h, read-out: IC50 * averaged values. The protocol:
as §1, §2, §3

In the next assay the test system is A549. Put plainly: MTT viability assay, A549. It is filed as cell-based, human. The note with it: mean ± span, 48 h treatment, cell line with KRAS mutation. The protocol: as §1, §2, §3
Another assay deals with H1395. Put plainly: MTT viability assay, H1395. Particulars: mean ± span, 48 h treatment, cell line without KRAS mutation. It is filed as cell-based, human. The method, then: as §1, §2, §3
The test system of assay [3] is TrxR in H522 cell lysates. Put plainly: Thioredoxin reductase activity in lysates of treated H522 cells. It is filed as cell-based, human. The note with it: for Mean Diff. TrxR activity vs. veh: H522 lysate, 24 h treatment at 5 μM. The protocol: The enzymatic activity of TrxR in the A549 and H522 cell lysates was measured using the TrxR assay Kit (Abcam ab83463) following the manufacturer’s instructions. This kit is based on the TxrR-mediated reduction of the colorless DTNB into TNB2—(yellow). Briefly, cells were plated to reach 70% confluence on a 100-mm dish in one day. They were treated with 5 μM of the gold compounds or the equivalent quantity of DMSO for 24 h. Then, cells were washed in PBS 1X, detached, and lysed in 100 μL of cold TrxR assay buffer supplemented with the Proteinase Inhibitor Cocktail. 20 μg and 40 μg of total proteins were used for the A549 and the H522, respectively. The DTNB substrate was added to samples with or without TrxR inhibitor (provided with the kit) in 96-well plates. The OD412 was measured soon after the substrate addition (A1) and then after 25, 60, 90, and 110 min (An) at 25 °C using a FLUOstar Omega Microplate Reader (BGM Labtech, Chicago, IL, USA). Data analysis was performed following the manufacturer’s instructions. The OD of TNB2, generated by TrxR in every condition, is:ΔA412 nm = (AnAB − AnINH) − (AB − A1INH) where AB is the assay buffer, and INH is the inhibitor. The TrxR activity is:(2) ΔB/Tn−T1×mg of protein lysate×sample dilution factor=(nmol/min)/mg=mU/mg where ΔB is the TNB amount calculated applying ΔA412 nm to TNB standard curve (in nmol), T1 is the time of the first reading (A1AB, and A1INH) (in min), Tn is the time of the second reading (AnAB and AnINH) (in min). The residual TxrR activity (%) was calculated by normalizing the TxrR activity for each compound with the matching vehicle values at every n time point.
as §3

In the next assay the test system is H157. Put plainly: MTT viability assay, H157. The class given is cell-based, human. The note with it: mean ± span, 48 h treatment, cell line with KRAS mutation. The protocol: as §1, §2, §3
The test system of a further assay is IMR90. The assay can be described thus: MTT viability assay, IMR90 non-transformed lung fibroblasts. The note with it: for selectivity for the NSCLC cell lines over the lung fibroblasts: IMR90 vs NSCLC cell lines, MTT 48 h; for IC50: mean ± span, 48 h treatment, MTT, non-transformed human lung fibroblasts. It is filed as cell-based, human. The method, then:
as §1, §2, §3

A word on the IC50: it is the concentration that gives 50% inhibition.

Take `Clc1n[c]([Au-][P+](c2ccccc2)(c2ccccc2)c2ccccc2)n(Cc2ccccc2)c1Cl` [Compound 7]: the half-maximal inhibitory concentration (IC50) amounted to 12 ± 1.04 µM with H1792; 10.9 ± 9.77 µM in assay [1] (H2F concentration 3.47 µM, read-out: hDHFR IC50); 23.6 ± 20.7 µM in [1] (H2F concentration 21.0 µM, read-out: hDHFR IC50); 1.8 ± 0.96 µM in the assay with H1993; 10 µM in assay [2]; 16 ± 1.3 µM in the assay with A549. Also, the IC50 with H1395 is 6.3 ± 0.98 µM; with H157 it was 8.5 ± 1.2 µM; with IMR90, 63 ± 2.5 µM. In addition, the “magnitude of inhibition, hDHFR” value in [1] (H2F concentration 3.47 µM) and in assay [1] (H2F concentration 21.0 µM) was ~ 50% each time. In addition, the “effect on hDHFR enzymatic activity” value in [1] is reported as “very little effect on the enzymatic activity”. Also, the “Mean Diff. TrxR activity vs. veh” value in assay [3] (reading at 25 min) is −57.19%; in assay [3] (reading at 60 min), −91.41%; in assay [3] (reading at 90 min), −90.61%; in assay [3] (reading at 110 min), −89.86%. In addition, the “selectivity for the NSCLC cell lines over the lung fibroblasts” value in the assay on IMR90 is reported as “good selectivity”.
Consider `Cn1cc[n+](C)[c]1[Au-2]([Cl])[P+](c1ccccc1)(c1ccccc1)c1ccccc1` [Compound 8], for which the IC50 in the assay on H1792 is 15 ± 1.1 µM; in assay [1] (H2F concentration 3.89 µM, sigmoidal fit, read-out: hDHFR IC50), 15 ± 1.25 µM; in assay [1] (H2F concentration 22.6 µM, sigmoidal fit, read-out: hDHFR IC50), 14.8 ± 1.25 µM; in [1] (dihydrofolate concentration comparable with the Km, read-out: hDHFR IC50 (conclusions)), roughly 15 µM; in the assay with H1993, 1.8 ± 1.05 µM; in [2], 11 µM. Further, the half-inhibitory concentration (IC50) came out at 9.1 ± 1.2 µM in the assay with A549, 5.9 ± 0.97 µM in the assay on H1395, 17 ± 1.2 µM in the assay on H157 and 87 ± 4.9 µM in the assay on IMR90. Moreover, in assay [1], the “effect on hDHFR enzymatic activity” value is “important inhibitory function”. Also, in assay [1] (dihydrofolate concentration comparable with the Km), the “reduction of the enzymatic activity of hDHFR (conclusions)” value came to 80%. In assay [3] (H522, 24 h treatment, stated for both cell lines), the “TrxR activity reduction / inhibition” value is reported as “more than 80%”. For the same compound, the “Mean Diff. TrxR activity vs. veh” value is −81.92% in assay [3] (reading at 25 min), −82.1% in assay [3] (reading at 60 min), −91.89% in assay [3] (reading at 90 min) and −88.27% in assay [3] (reading at 110 min). The “selectivity for the NSCLC cell lines over the lung fibroblasts” value with IMR90 was “good selectivity”.
